Data from PMC9227781, “Inhibitors of O-Acetylserine Sulfhydrylase with a Cyclopropane-Carboxylic Acid Scaffold Are Effective Colistin Adjuvants in Gram Negative Bacteria” (Pharmaceuticals, 2022).
Values after ≈ are worked out from the molar mass of the structure shown.

Legend:
[1] = tested on: MDBK cells; test: Cytotoxicity assay (MTT) on MDBK cells; type: cell-based, bovine; details: 32, 16, 8 µg/mL; MTT test
Description: The cytotoxicity assay was performed using the 3-(4,5-dimethylthiazol-2-yl)-2,5-diphenyltetrazolium bromide (MTT) test, following the procedure used by Donofrio et al.. MDBK cells were cultured on microtiter tissue culture plates in DMEM medium for 24 h at 37 °C in the presence of 5% CO2. After incubation, when the cell monolayer was at confluence, an aliquot of 1 µL of UPAR415 in DMSO at different concentrations was added in each well, containing a volume of 100 µL of DMEM medium and MDBK cells, and then the plates were reincubated at the same conditions. After incubation, 10 µL of MTT at 200 mg/mL (3-(4,5-dimethylthiazol-2-yl)-2,5-diphenyltetrazolium bromide) was added to each well and incubated at 37 °C for 6 h. At the end of the incubation, 100 µL of the solubilization solution (10% SDS in 0.01 M HCl) was added to each well and then incubated overnight. The MTT compound, a yellow tetrazolium salt, is reduced by mitochondrial enzymes (succinate dehydrogenase) of metabolically active eukaryotic cells to insoluble formazan crystals. In the presence of metabolically active cells, after the addition of a detergent solution (10% SDS in […]) that allows the formazan to be released from the cells, a violet color is seen in the medium. Instead, in the presence of non-viable cells, MTT is not reduced to formazan and therefore the solution will remain yellow.
After incubation, plates were read with a spectrophotometer at 620 nm. Positive controls (PC)—without any compounds—and PCs with 1% DMSO were performed for each plate and three replicates for two independent experiments were performed for each assay.

[2] = tested on: E. coli ATCC 25922; test: MIC by broth microdilution, E. coli; type: cell-based, Escherichia coli; details: MHB; for MIC: Escherichia coli, ATCC25922, read-out: MIC (μg/mL) E.coli ATCC 25922
Description: (§1) MIC values were evaluated following CLSI guidelines with some modifications, as referred to in previous work. Twofold dilutions 25.6–0.05 mg/mL of the tested compounds were performed in DMSO in separate 96-well microtiter U-plates (Greiner, Milan, Italy). In a different 96-well microtiter U-plate, for each well of the replicates, 49 µL of broth medium were added. Then, in each well of the plate, one microliter of each compound at variable dilution in DMSO was added. For each test, three independent experiments with three replicates each were performed. Tested reference bacterial strains (E. coli ATCC25922; S. Typhimurium ATCC14028; K. pneumoniae ATCC13883) were brought to the logarithmic phase of growth in MHB medium by incubation at 37 °C for 24 h. After incubation, bacterial suspensions were centrifuged (2000 rpm, 4 °C for 20 min), and then the pellets were resuspended in 100 mM phosphate buffer, pH 7.0, to reach a final bacterial concentration of 10^8 CFU/mL, adjusted by spectrophotometry (OD620nm ranged between 0.08–0.13). The obtained suspensions were further diluted 1:100 in broth medium to reach a bacterial concentration of 10^6 CFU/mL. Fifty µL of the bacterial suspension containing 10^6 CFU/mL were inoculated into each well within 30 min, to obtain a final concentration of 5 × 10^5 CFU/mL in a total volume of 100 µL. The final dilution range tested was 256–0.5 µg/mL. Growth and sterility controls were performed for each strain and for each tested compound. Plates were then incubated for 24 h at 37 °C in a static aerobic atmosphere. After incubation, plates were read by unaided eye with a microtiter reading mirror and then the OD of each well of the plates was measured spectrophotometrically at 620 nm. MIC values were calculated as the arithmetic mean ± standard deviation (SD) of the unaided eye reading and the inhibition of growth for each tested dilution was calculated from the OD values (mean ± SD). A quality control microorganism (E. coli ATCC 25922) was tested periodically to validate the accuracy of the procedure.

[3] = tested on: K. pneumoniae ATCC13883; test: MIC by broth microdilution, K. pneumoniae; type: cell-based, Klebsiella pneumoniae; details: MHB; for MIC: Klebsiella pneumoniae, ATCC13883, read-out: MIC (μg/mL) K. pneumoniae ATCC13883
Description: as §1

[4] = biological target: T1, StOASS-A (Salmonella typhimurium, UniProt P0A1E3); test: Fluorescence binding assay on purified recombinant StOASS-A; set-up: species or system S. Typhimurium; details: 20 °C, 100 mM HEPES, 5% DMSO, pH 7.0; racemic mixture; esters tested up to 100 μM
T1 construct: His-tag (with TEV site) (cleaved yes); made in house; host or cells: E. coli Rosetta (DE3)
Description: (§2) The affinity of the compounds for StOASS-A and StOASS-B was determined on the purified recombinant proteins by an in vitro fluorescence binding assay. Measurements were carried out at 20 °C in a 3 mm pathlength quartz microcuvette in 100 mM HEPES, 5% DMSO (Applichem, Darmstadt, Germany), pH 7.0, using a Fluoromax-4 (Horiba Jobin-Yvon, Kyoto, Japan) spectrofluorometer. Emission spectra of solutions containing 0.2–1.0 μM StOASS, upon excitation of the pyridoxal 5′-phosphate cofactor at 412 nm, in the presence of increasing concentrations of compounds were collected; fluorescence intensities at 500 nm were plotted to compound concentration and data were fitted to a binding isotherm: I=I0+ΔI·compound/KD+compound where I is the fluorescence emission intensity at 500 nm in the presence of a given concentration of compound, I0 is the initial fluorescence emission in the absence of ligands, ΔI is the amplitude of the fluorescence emission change and KD is the dissociation constant. When the KD was lower than the protein concentration, data were fitted to the quadratic equation: I=I0+ΔI·OASS+compound+KD−OASS+compound+KD^2−4·OASS·compound/2
(§3) Data were collected in duplicate.
(§4) Esters were tested up to a concentration of 100 μM and no binding was observed.

[5] = biological target: T2, StOASS-B (Salmonella typhimurium, UniProt P29848); test: Fluorescence binding assay on purified recombinant StOASS-B; details: 20 °C, 100 mM HEPES, 5% DMSO, pH 7.0; racemic mixture; esters tested up to 100 μM
T2 construct: His-tag (with TEV site) (cleaved yes); made in house; host or cells: E. coli Rosetta (DE3)
T2 sequence (P29848 1-303): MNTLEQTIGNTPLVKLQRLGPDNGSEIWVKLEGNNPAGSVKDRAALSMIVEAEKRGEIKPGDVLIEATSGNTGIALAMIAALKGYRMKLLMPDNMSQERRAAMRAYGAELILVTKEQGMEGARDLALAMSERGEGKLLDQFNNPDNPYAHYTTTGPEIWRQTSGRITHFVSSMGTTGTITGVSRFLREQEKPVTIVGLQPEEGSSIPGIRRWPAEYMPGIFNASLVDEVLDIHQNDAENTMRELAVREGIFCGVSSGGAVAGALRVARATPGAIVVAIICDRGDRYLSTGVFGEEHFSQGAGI
Description: as §2, §3, §4

[6] = tested on: S. Typhimurium ATCC14028; test: MIC by broth microdilution, S. Typhimurium; type: cell-based, Salmonella enterica serovar Typhimurium; details: MHB; for MIC: Salmonella enterica, read-out: MIC (μg/mL) S. Typhimurium ATCC14028
Description: as §1

[7] = tested on: S. Typhimurium DW378; test: Target engagement: MIC of 12h and colistin in cysK/cysM-inactive mutant strain; type: cell-based, Salmonella enterica serovar Typhimurium; details: colistin alone
Description: In this regard, compound 12h has been selected because of its favorable overall properties. It has been tested at a concentration of 32 μg/mL, in order to ensure complete inactivation of both the OASS isoforms. […] The MIC assays of 12h and colistin alone on the DW378 strain have been performed and they have been compared with those obtained on the WT strain. […] But, on the other hand, the MIC value of colistin was […] lower on the mutant strain than that on the WT, a result that overlapped those achieved with the association of colistin and 12h in WT cells.
MIC values were evaluated following CLSI guidelines with some modifications, as referred to in previous work. Twofold dilutions 25.6–0.05 mg/mL of the tested compounds were performed in DMSO in separate 96-well microtiter U-plates (Greiner, Milan, Italy). In a different 96-well microtiter U-plate, for each well of the replicates, 49 µL of broth medium were added. Then, in each well of the plate, one microliter of each compound at variable dilution in DMSO was added. For each test, three independent experiments with three replicates each were performed.
Antimicrobial activity of associations between the different compounds and colistin (Sigma-Aldrich, St. Louis, MO, USA, lot n. 049M-4836 V) was tested with checkerboard assay with minor modifications, as mentioned in the previous work. For each assay, three experiments with three replicates each were assessed. For each compound tested concentration, 96-wells microtiter U-plates were prepared with twofold serial dilutions of colistin in MHB starting from the MIC value (µg/mL) for ten consecutive dilutions in 50 µL of broth. In each well of the same replicate, 1 µL of each compound in DMSO was added at a fixed concentration, 100 times higher than the final desired concentration (3.2; 1.6; 0.8 mg/mL). Subsequently, 49 µL of the bacterial suspension at a concentration of 10^6 CFU/mL, adjusted spectrophotometrically as reported above, was added to each well, reaching the final bacterial concentration of 5 × 10^5 CFU/mL. Growth and sterility controls were performed for each experiment and for each replicate. Finally, the plates were incubated at 37 °C in aerobic atmosphere for 24 h. After incubation, plates were read by unaided eye with a microtiter reading mirror and then the OD of each well of the plates was measured spectrophotometrically at 620 nm. MIC values were calculated as the arithmetic mean ± SD of the unaided eye reading and the inhibition of growth for each tested dilution was calculated from the OD values (mean ± SD).
* This strain is defective for the expression of cysK and cysM genes, encoding for isozymes OASS-A and B. The genotypes of this strain are trpC109, cysK1772, and cysM1770. […]

T1 sequence (P0A1E3 whole entry): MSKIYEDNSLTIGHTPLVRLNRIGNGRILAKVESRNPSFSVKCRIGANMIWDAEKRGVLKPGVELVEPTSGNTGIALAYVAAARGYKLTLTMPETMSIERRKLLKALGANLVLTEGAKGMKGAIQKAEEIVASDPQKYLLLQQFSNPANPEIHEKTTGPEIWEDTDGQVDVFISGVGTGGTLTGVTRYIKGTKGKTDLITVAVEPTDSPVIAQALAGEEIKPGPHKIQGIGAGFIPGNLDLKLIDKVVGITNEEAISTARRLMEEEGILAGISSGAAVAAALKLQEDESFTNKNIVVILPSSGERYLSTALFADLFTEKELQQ

Compound: CCOC(=O)[C@]1(Cc2ccc(C)cc2)C[C@H]1c1cccc(N2CCN(C)CC2)c1 (relative stereo) [Compound 20j, trans-ethyl 1-(4-methylbenzyl)-2-(3-(4-methylpiperazin-1-yl)phenyl)cyclopropanecarboxylate]
- Toxicity on viability of MDBK cells [1]: high toxicity profiles
- MIC ([2]; compound alone, 24 h at 37 °C): > 512 µg/mL
- MIC ([3]; compound alone, 24 h at 37 °C): > 512 µg/mL
- KD (μM) OASS-A [4]: No binding
- KD (μM) OASS-B [5]: No binding
- MIC ([6]; compound alone, 24 h at 37 °C): > 512 µg/mL

Compound: Colistin [reference compound]
- MIC Colistin ([7]; DW378 mutant strain): 0.141 ± 0.09 µg/mL
- MIC of colistin on mutant strain DW378 relative to WT (fold lower) ([7]; DW378 versus wild type): 5 fold
- MIC Colistin E. coli ([2]; colistin alone): 0.39 ± 0.25 µg/mL
- MIC Colistin K. pneumoniae ([3]; colistin alone): 4.00 ± 1.73 µg/mL
- MIC Colistin S. Typhimurium ([6]; colistin alone, ATCC14028 (wild type)): 0.53 ± 0.19 µg/mL

Compound: CCOC(=O)[C@]1(Cc2ccc(C)cc2)C[C@H]1c1cccc(N2CCNCC2)c1 (relative stereo) [Compound 20i, trans-ethyl 1-(4-methylbenzyl)-2-(3-(piperazin-1-yl)phenyl)cyclopropanecarboxylate]
- Toxicity on viability of MDBK cells [1]: high toxicity profiles
- MIC ([2]; compound alone, 24 h at 37 °C): 40 µg/mL (≈ 106 µM)
- MIC (μg/mL) E.coli ATCC 25922 ([2]; compound alone, 24 h at 37 °C): measurable antimicrobial activity
- MIC ([3]; compound alone, 24 h at 37 °C): 32 µg/mL (≈ 84.5 µM)
- MIC (μg/mL) K. pneumoniae ATCC13883 ([3]; compound alone, 24 h at 37 °C): measurable antimicrobial activity
- KD (μM) OASS-A [4]: No binding
- KD (μM) OASS-B [5]: No binding
- MIC ([6]; compound alone, 24 h at 37 °C): 36 µg/mL (≈ 95.1 µM)
- MIC (μg/mL) S. Typhimurium ATCC14028 ([6]; compound alone, 24 h at 37 °C): measurable antimicrobial activity

Compound: CCOC(=O)[C@]1(Cc2ccc(C)cc2)C[C@H]1c1cccc(N2CCOCC2)c1 (relative stereo) [Compound 12g, trans-ethyl 1-(4-methylbenzyl)-2-(3-morpholinophenyl)cyclopropanecarboxylate]
- Toxicity on viability of MDBK cells [1]: proliferative effects
- MIC ([2]; compound alone, 24 h at 37 °C): > 512 µg/mL
- MIC ([3]; compound alone, 24 h at 37 °C): > 512 µg/mL
- KD (μM) OASS-A [4]: No binding
- KD (μM) OASS-B [5]: No binding
- MIC ([6]; compound alone, 24 h at 37 °C): > 512 µg/mL

Compound: CCOC(=O)[C@]1(Cc2ccc(C)cc2)C[C@H]1c1cccc(-c2cc(O)cc(F)c2)c1 (relative stereo) [Compound 8e, trans-ethyl 2-(3′-fluoro-5′-hydroxy-[1,1′-biphenyl]-3-yl)-1-(4-methylbenzyl) cyclopropanecarboxylate]
- Toxicity on viability of MDBK cells [1]: high toxicity profiles
- MIC ([2]; compound alone, 24 h at 37 °C): > 512 µg/mL
- MIC ([3]; compound alone, 24 h at 37 °C): > 512 µg/mL
- KD (μM) OASS-A [4]: No binding
- KD (μM) OASS-B [5]: No binding
- MIC ([6]; compound alone, 24 h at 37 °C): > 512 µg/mL

Compound: CCOC(=O)[C@]1(Cc2ccc(C)cc2)C[C@H]1c1cccc(-c2cccc(F)c2)c1 (relative stereo) [Compound 8f, trans-ethyl 2-(3′-fluoro-[1,1′-biphenyl]-3-yl)-1-(4-methylbenzyl)cyclopropanecarboxylate]
- Toxicity on viability of MDBK cells [1]: proliferative effects
- MIC ([2]; compound alone, 24 h at 37 °C): > 512 µg/mL
- MIC ([3]; compound alone, 24 h at 37 °C): > 512 µg/mL
- KD (μM) OASS-A [4]: No binding
- KD (μM) OASS-B [5]: No binding
- MIC ([6]; compound alone, 24 h at 37 °C): > 512 µg/mL
